Test results reported in paper PMC10726352, “Discovery of KB-0742, a Potent, Selective, Orally Bioavailable Small Molecule Inhibitor of CDK9 for MYC-Dependent Cancers” (Journal of Medicinal Chemistry, 2023).
pEC50, pIC50: −log10 of the molar value. Values joined by “and” are separate entries in the source; they are usually repeats but may differ in a detail not shown here. Identical values can stand only once. Values belong to the compound of their own block, whether it stands above or below them.

What was measured:
Plasma protein binding [1] = conditions: mouse
in vitro [2] = conditions: rat, hepatocytes
Plasma protein binding [3] = conditions: dog
Microsome stability [4] = conditions: dog
Pharmacokinetics [5] = type: in vivo; conditions: dog
Plasma protein binding [6] = conditions: human
Plasma protein binding [7] = conditions: rat
in vitro [8] = conditions: mouse, hepatocytes
Pharmacokinetics [9] = type: in vivo; conditions: rat
in vitro [10] = conditions: human, hepatocytes
in vitro [11] = conditions: mouse, rat, dog, human, microsomes and hepatocytes
[12] = Projection of human PK parameters
Microsome stability [13] = conditions: rat
LogD = type: physicochemical; conditions: pH = 7.4
Microsome stability [14] = conditions: mouse
[15] = Plasma concentration in CTG-1017 tumor-bearing mice; type: in vivo; conditions: Athymic Nude-Foxn1nu, mouse, po, 60 mg/kg p.o.
Microsome stability [16] = conditions: human
Pharmacokinetics [17] = type: in vivo; conditions: mouse
in vitro [18] = conditions: dog, hepatocytes
MT-3 = test: OncoPanel Multiplexed Cytotoxicity Assay; type: cell-based
BT-20 = test: OncoPanel Multiplexed Cytotoxicity Assay; type: cell-based
Hs 578T = test: OncoPanel Multiplexed Cytotoxicity Assay; type: cell-based
MDA-MB-231 = test: OncoPanel Multiplexed Cytotoxicity Assay; type: cell-based
BT-549 = test: OncoPanel Multiplexed Cytotoxicity Assay; type: cell-based

PPB (Plasma protein binding [1]): 48 % bound
CLint scaled (in vitro [2]): 62 mL/min/kg
half-life (in vitro [2]): 1.97 h
PPB (Plasma protein binding [3]): 72 % bound
Microsome stability (Microsome stability [4]): 68.8 % remaining 180 min
T1/2 (i.v.) (Pharmacokinetics [5]; i.v. 0.50 mg/kg): 4.7 h
Vd,ss (i.v.) (Pharmacokinetics [5]; i.v. 0.50 mg/kg): 4.5 L/kg
F (Pharmacokinetics [5]; p.o. […]): >100%
CLint scaled (Pharmacokinetics [5]; plasma, iv, 0.5 mg/kg, i.v. 0.50 mg/kg): 13.4 mL/min/kg
PPB (Plasma protein binding [6]): 38 % bound
PPB (Plasma protein binding [7]): 41 % bound
CLint scaled (in vitro [8]): 44 mL/min/kg
T1/2 (i.v.) (Pharmacokinetics [9]; i.v. 2.0 mg/kg): 2.4 h
AUC (p.o.) (Pharmacokinetics [9]; p.o. 10 mg/kg): 3591 ng·h/mL
Cmax (p.o.) (Pharmacokinetics [9]; p.o. 10 mg/kg): 411 ng/mL
CLint scaled (in vitro [10]): 1.6 mL/min/kg
half-life (in vitro [10]): 39 h
half-life (in vitro [11]): ≥ 2 h
mean predicted human Vd,ss ([12]; 70 kg body weight, IVIVE and allometry): 6.0 L/kg
predicted human oral bioavailability ([12]; derived from nonclinical species): 75%
half-life ([12]; human, plasma, one-compartment, read-out: estimated human terminal half-life (converted)): ~35 h
Microsome stability (Microsome stability [13]): 81.3 % remaining 180 min
logD (LogD): 0.9
Microsome stability (Microsome stability [14]): 87.4 % remaining 180 min
concentration at 2 h ([15]; 2 h post-dose): 846 ng/mL and 2.9 µM
concentration at 8 h ([15]; 8 h post-dose): 73 ng/mL and 250 nM
Microsome stability (Microsome stability [16]): 92.5 % remaining 180 min
Vd,ss (i.v.) (Pharmacokinetics [17]; i.v. 1.0 mg/kg): 3.9 L/kg
AUC (p.o.) (Pharmacokinetics [17]; p.o. 20 mg/kg): 1700 ng·h/mL
Cmax (p.o.) (Pharmacokinetics [17]; p.o. 20 mg/kg): 501 ng/mL
CLint scaled (in vitro [18]): 38 mL/min/kg
half-life (in vitro [18]): 3.25 h
Structure (SMILES): CCC(CC)c1cc(N[C@H]2CC[C@H](N)C2)n2nccc2n1 [Compound 28, [(1S,3S)-3-[[5-(1-Ethylpropyl)pyrazolo[1,5-a]pyrimidin-4-ium-7-yl]amino]cyclopentyl]ammonium Dichloride]

Structure (SMILES): CN[C@@H]1C[C@H]2O[C@@](C)([C@@H]1OC)n1c3ccccc3c3c4c(c5c6ccccc6n2c5c31)C(=O)NC4 [Staurosporine]
Apoptosis Emax (MT-3): 10.32
G1/S cell cycle block (MT-3; MT-3, 72 h): 0.0273 µM
GI50 (MT-3; MT-3, 72 h, read-out: Cell count GI50): 9.39 nM
Apoptosis Emax (BT-20): 4.6
Cell Count Activity Area (BT-20): 2.58
G1/S cell cycle block (BT-20; BT-20, 72 h): 0.00581 µM
pEC50 (BT-20; Homo sapiens, BT-20, 72 h, read-out: Cell Count EC50): 7.50
GI50 (BT-20; Homo sapiens, BT-20, 72 h, read-out: Cell count GI50): 23.6 nM
Apoptosis Emax (Hs 578T): 6.48
Cell Count Activity Area (Hs 578T): 4.99
GI50 (Hs 578T; Homo sapiens, Hs-578T, 72 h, read-out: Cell count GI50): 1.45 nM
G1/S cell cycle block (Hs 578T; Hs 578T, 72 h): 0.000753 µM
Apoptosis Emax (MDA-MB-231): 5.32
Cell Count Activity Area (MDA-MB-231): 5.26
pIC50 (MDA-MB-231; Homo sapiens, MDA-MB-231, 72 h, read-out: Cell count IC50): 8.77
G1/S cell cycle block (MDA-MB-231; MDA-MB-231, 72 h): 0.0122 µM
Apoptosis Emax (BT-549): 6.9
Cell Count Activity Area (BT-549): 4.39
G1/S cell cycle block (BT-549; BT-549, 72 h): 0.00531 µM
GI50 (BT-549; Homo sapiens, BT-549, 72 h, read-out: Cell count GI50): 5.56 nM
